Measured values as given in EPA's CvTdb concentration-time database.

Experiments:
Rat [1] = assay: concentration in plasma after dosing; conditions: dosed: Tamoxifen citrate, 300 ug/mL, oral, Female, F344
Rat [2] = assay: concentration in liver after dosing; conditions: 144 h; dosed: Tamoxifen citrate; 300 ug/mL; oral; Female; F344
Rat [3] = assay: concentration in plasma after dosing; conditions: dosed: Tamoxifen, 300 ug/mL, oral, Female, F344
Rat [4] = assay: concentration in adipose after dosing; conditions: 144 h; dosed: Tamoxifen; 300 ug/mL; oral; Female; F344
Rat [5] = assay: concentration in liver after dosing; conditions: 144 h; dosed: Tamoxifen; 300 ug/mL; oral; Female; F344
Rat [6] = assay: concentration in liver after dosing; conditions: 144 h; dosed: Tamoxifen citrate; 300 ug/mL; oral; Female; F344; remark: listed apart in the source
Rat [7] = assay: concentration in liver after dosing; conditions: 72 h; dosed: Tamoxifen citrate; 300 ug/mL; oral; Female; F344
Rat [8] = assay: concentration in liver after dosing; conditions: 144 h; dosed: Tamoxifen; 300 ug/mL; oral; Female; F344; remark: listed apart in the source
Rat [9] = assay: concentration in plasma after dosing; conditions: dosed: Tamoxifen, 300 ug/mL, oral, Female, F344; remark: listed apart in the source
Rat [10] = assay: concentration in adipose after dosing; conditions: 144 h; dosed: Tamoxifen citrate; 300 ug/mL; oral; Female; F344
Rat [11] = assay: concentration in adipose after dosing; conditions: 72 h; dosed: Tamoxifen citrate; 100 ug/mL; oral; Female; F344
Rat [12] = assay: concentration in adipose after dosing; conditions: 144 h; dosed: Tamoxifen; 300 ug/mL; oral; Female; F344; remark: listed apart in the source
Rat [13] = assay: concentration in adipose after dosing; conditions: 144 h; dosed: Tamoxifen citrate; 300 ug/mL; oral; Female; F344; remark: listed apart in the source
Rat [14] = assay: concentration in liver after dosing; conditions: 144 h; dosed: Tamoxifen citrate; 300 ug/mL; oral; Female; F344; remark: listed apart in the source
Rat [15] = assay: concentration in liver after dosing; conditions: 144 h; dosed: Tamoxifen; 300 ug/mL; oral; Female; F344; remark: listed apart in the source
Rat [16] = assay: concentration in adipose after dosing; conditions: 72 h; dosed: Tamoxifen citrate; 300 ug/mL; oral; Female; F344
Rat [17] = assay: concentration in adipose after dosing; conditions: 144 h; dosed: Tamoxifen; 300 ug/mL; oral; Female; F344; remark: listed apart in the source
Rat [18] = assay: concentration in liver after dosing; conditions: 72 h; dosed: Tamoxifen; 300 ug/mL; oral; Female; F344
Rat [19] = assay: concentration in plasma after dosing; conditions: 300 ug/mL, oral, Female, F344
Rat [20] = assay: concentration in liver after dosing; conditions: 72 h; dosed: Tamoxifen citrate; 300 ug/mL; oral; Female; F344; remark: listed apart in the source
Rat [21] = assay: concentration in liver after dosing; conditions: 144 h; dosed: Tamoxifen citrate; 100 ug/mL; oral; Female; F344
Rat [22] = assay: concentration in plasma after dosing; conditions: dosed: Tamoxifen citrate, 300 ug/mL, oral, Female, F344; remark: listed apart in the source
Rat [23] = assay: concentration in adipose after dosing; conditions: 144 h; dosed: Tamoxifen; 300 ug/mL; oral; Female; F344; remark: listed apart in the source
Rat [24] = assay: concentration in adipose after dosing; conditions: oral, Female, F344
Rat [25] = assay: concentration in liver after dosing; conditions: 144 h; dosed: Tamoxifen citrate; 300 ug/mL; oral; Female; F344; remark: listed apart in the source
Rat [26] = assay: concentration in adipose after dosing; conditions: 72 h; dosed: Tamoxifen citrate; 100 ug/mL; oral; Female; F344; remark: listed apart in the source
Rat [27] = assay: concentration in liver after dosing; conditions: 144 h; dosed: Tamoxifen; 300 ug/mL; oral; Female; F344; remark: listed apart in the source
Rat [28] = assay: concentration in adipose after dosing; conditions: 72 h; dosed: Tamoxifen; 300 ug/mL; oral; Female; F344
Rat [29] = assay: concentration in adipose after dosing; conditions: 144 h; dosed: Tamoxifen citrate; 300 ug/mL; oral; Female; F344; remark: listed apart in the source
Rat [30] = assay: concentration in liver after dosing; conditions: oral, Female, F344
Rat [31] = assay: concentration in plasma after dosing; conditions: dosed: Tamoxifen, 300 ug/mL, oral, Female, F344; remark: listed apart in the source
Rat [32] = assay: concentration in liver after dosing; conditions: 72 h; dosed: Tamoxifen; 300 ug/mL; oral; Female; F344; remark: listed apart in the source
Rat [33] = assay: concentration in liver after dosing; conditions: 144 h; dosed: Tamoxifen citrate; 100 ug/mL; oral; Female; F344; remark: listed apart in the source
Rat [34] = assay: concentration in adipose after dosing; conditions: 144 h; dosed: Tamoxifen citrate; 300 ug/mL; oral; Female; F344; remark: listed apart in the source
Rat [35] = assay: concentration in adipose after dosing; conditions: 144 h; dosed: Tamoxifen citrate; 100 ug/mL; oral; Female; F344
Rat [36] = assay: concentration in liver after dosing; conditions: 72 h; dosed: Tamoxifen citrate; 100 ug/mL; oral; Female; F344
Rat [37] = assay: concentration in plasma after dosing; conditions: dosed: Tamoxifen citrate, 300 ug/mL, oral, Female, F344; remark: listed apart in the source
Rat [38] = assay: concentration in liver after dosing; conditions: 144 h; dosed: Tamoxifen citrate; 300 ug/mL; oral; Female; F344; remark: listed apart in the source
Rat [39] = assay: concentration in adipose after dosing; conditions: 72 h; dosed: Tamoxifen; 300 ug/mL; oral; Female; F344; remark: listed apart in the source
Rat [40] = assay: concentration in adipose after dosing; conditions: 144 h; dosed: Tamoxifen citrate; 300 ug/mL; oral; Female; F344; remark: listed apart in the source
Rat [41] = assay: concentration in liver after dosing; conditions: 72 h; dosed: Tamoxifen citrate; 100 ug/mL; oral; Female; F344; remark: listed apart in the source
Rat [42] = assay: concentration in liver after dosing; conditions: 144 h; dosed: Tamoxifen; 300 ug/mL; oral; Female; F344; remark: listed apart in the source
Rat [43] = assay: concentration in adipose after dosing; conditions: 72 h; dosed: Tamoxifen citrate; 300 ug/mL; oral; Female; F344; remark: listed apart in the source
Rat [44] = assay: concentration in adipose after dosing; conditions: 144 h; dosed: Tamoxifen; 300 ug/mL; oral; Female; F344; remark: listed apart in the source

CC/C(=C(\c1ccccc1)c1ccc(OCCN(C)C)cc1)c1ccccc1 [Tamoxifen]
concentration in plasma [ng/mL]
Conditions | Rat [1] | Rat [3] | Rat [9] | Rat [22] | Rat [31] | Rat [37]
0.25 h | 21.9 | 11.9 | 21.9 | 11.9 | 15.4 | 15.4
0.5 h | 10.2 | 8.96 | 10.2 | 8.96 | 12.2 | 12.2
1 h | – | 7.35 | – | 7.35 | 9.33 | 9.33
2 h | 6.23 | 5.81 | 6.23 | 5.81 | 8.41 | 8.41
4 h | 4.51 | – | 4.51 | – | 4.44 | 4.44
12 h | 2.66 | – | 2.66 | – | – | –

Conditions | concentration in adipose [ng/mL] | concentration in liver [ng/g]
Rat [2] | – | 37.2
Rat [4] | 55.7 | –
Rat [5] | – | 58.4
Rat [6] | – | 239
Rat [7] | – | 21.1
Rat [8] | – | 37.2
Rat [10] | 151 | –
Rat [11] | 14.8 | –
Rat [12] | 40.1 | –
Rat [13] | 55.7 | –
Rat [14] | – | 22.8
Rat [15] | – | 22.8
Rat [16] | 31.2 | –
Rat [17] | 151 | –
Rat [18] | – | 30.5
Rat [20] | – | 30.5
Rat [21] | – | 13.9
Rat [23] | 30.4 | –
Rat [25] | – | 58.4
Rat [26] | 5.58 | –
Rat [27] | – | 25.3
Rat [28] | 31.2 | –
Rat [29] | 44.5 | –
Rat [32] | – | 21.1
Rat [33] | – | 16.3
Rat [34] | 30.4 | –
Rat [35] | 10.4 | –
Rat [36] | – | 5.85
Rat [38] | – | 25.3
Rat [39] | 27.4 | –
Rat [40] | 40.1 | –
Rat [41] | – | 13
Rat [42] | – | 239
Rat [43] | 27.4 | –
Rat [44] | 44.5 | –

concentration in plasma [ng/mL], Rat [19]
Conditions | 0 h | 0.25 h | 0.5 h | 1 h | 2 h | 4 h | 8 h | 16 h
dosed: Tamoxifen | 2.13 | 3.18 | 2.95 | 2.9 | 4.38 | 4.12 | 4.6 | 2.42
dosed: Tamoxifen citrate | 2.13 | 3.18 | 2.95 | 2.9 | 4.38 | 4.12 | 4.6 | 2.42

Conditions | concentration in adipose, Rat [24] [ng/mL] | concentration in liver, Rat [30] [ng/g]
72 h, dosed: Tamoxifen citrate, 100 ug/mL | 7.52 | 7.61
72 h, dosed: Tamoxifen citrate, 300 ug/mL | 33.6 | 39.5
72 h, dosed: Tamoxifen, 300 ug/mL | 33.6 | 39.5
144 h, dosed: Tamoxifen citrate, 100 ug/mL | 9.5 | 13.4
144 h, dosed: Tamoxifen citrate, 300 ug/mL | 31.5 | 48.3
144 h, dosed: Tamoxifen, 300 ug/mL | 31.5 | 48.3
